Tests used:
A549 xenograft tumor = test: Xenograft tumor growth of A549 cells transfected with siRNA pre-implantation in CD-1 nude mice; type: in vivo, mouse
Protocol: To determine the effect of RRM1 knockdown on tumor growth, A549 cells (human lung cancer cell line; ATCC No. CCL-185) were reverse-transfected prior to implantation in CD-1 nude mice. In 175 cm^2 culture flasks, 10×10^6 A549 cells (in RPMI supplemented with 10% fetal calf serum) were added to pre-made lipoplexes. To make lipoplexes, Lipofectamine RNAiMAX in serum-free RPMI was added to an equal volume of serum-free RPMI containing siRNA (RRM1-2; SEQ ID NO: 4831 (DNA), and SEQ ID NO: 5137 (RNA)) and a control siRNA (SEQ ID NO: 4804 (DNA), and SEQ ID NO: 5301 (RNA)). After addition of cells, the final concentration of siRNA in the flask was 10 nM. Untransfected cells served as a further control. Flasks were incubated at 37° C. for 24 h to allow transfection to proceed.
The cells were harvested by trypsinization 24 h after the transfection, washed twice in PBS and viable cells were counted. Equal numbers of cells (1×10^7) were inoculated into CD-1 nude mice (n=7-9). Briefly, 5 to 7 weeks old nude mice were subcutaneously (s.c.) injected in the right flank with A549 cells in 100 μl PBS. Tumor growth was monitored 3 times per week by measuring tumor sizes using a digital caliper. Tumor volume was expressed in […] using the formula: V=a^2×b×0.52, where a and b represent the minimum and maximum tumor diameter, respectively. Mean tumor volumes calculated from each measurement were then plotted in a standard graph to compare the tumor growth of transfected cells to that of control.
To determine the effect of siRNA-mediated knockdown of HK-II, CAD, IMPDH2, RRM2, SLC16A1 and SLC29A1 on tumor growth, A549 cells (human lung cancer cell line; ATCC No. CCL-185) were reverse-transfected prior to implantation in CD-1 nude mice as described above with siRNAs given in SEQ ID NO: 5307 (DNA), and SEQ ID NO: 5304 (RNA) for RRM2, SEQ ID NO: 4932 (DNA), and SEQ ID NO: 5227 (RNA) for ENT1, SEQ ID NO: 4813 (DNA), and SEQ ID NO: 5119 (RNA) for HK-II, SEQ ID NO: 4827 (DNA), and SEQ ID NO: 5133 (RNA) for CAD, SEQ ID NO: 4879 (DNA), and SEQ ID NO: 5182 (RNA) for IMPDH2 and SEQ ID NO: 4924 (DNA), and SEQ ID NO: 5219 (RNA) for SLC16A1, respectively. The siRNA given in SEQ ID NO: 4804 (DNA), and SEQ ID NO: 5301 (RNA) was used as control.
In two separate experiments, CD-1 mice were divided into five groups that received untransfected A549 cells, cells transfected with control siRNA or three different siRNAs (as listed above), respectively. Cells were transfected in vitro using the method as described in Example 8, and 24 h after transfection, s.c. inoculated into mice. Tumor growth was measured 3 times per week. In the first experiment, mice received cells transfected with siRNA targeting RRM2, HK-II or SLC29A1 and were monitored for 33 days. In the second experiment, mice received cells transfected with siRNA targeting CAD, IMPDH2 or SLC16A1, and were monitored for 26 days. […] Similarly, preliminary data indicated tumor growth rate was reduced for the groups receiving cells transfected with siRNA targeting CAD and SLC16A1. Twenty-six days after cell inoculation, the tumor volume for mice with cells transfected with siRNA targeting CAD or SLC16A1 was 97.2±7.3 mm^3 or 110.1±28.1 mm^3, respectively.

YBX1 (p47) and p37 = test: YBX1 protein level by Western blotting in A549 cells; type: cell-based, human; details: 10 nM siRNA; 24 h post-transfection; compared with control siRNA
Protocol: Cell lysates were prepared from A549 cells 24 h post-transfection with 10 nM YBX1-specific siRNA (SEQ ID NO: 4982 (DNA), and SEQ ID NO: 5277 (RNA) was labeled 94; SEQ ID NO: 4983 (DNA), and SEQ ID NO: 5278 (RNA) was labeled 95) or control siRNA (SEQ ID NO: 4804 (DNA), and SEQ ID NO: 5301 (RNA); labeled 81). Following Western blotting onto Immobilon-P PVDF filer (Millipore, Bedford Mass.), membranes were probed with a goat anti-human polyclonal antibody specific for YBX1 (AbCam plc, Cambridge, UK), at a concentration of […]. HRP-conjugated donkey anti-goat IgG ([…]; Santa Cruz) was used as a secondary antibody, and signal was detected with an ECL Plus Western blotting Detection System (GE Healthcare, UK) using a Typhoon Scanner (Molecular Dynamics, GE Healthcare, UK).

SEQ ID NO: 4924: siRNA targeting SLC16A1 (MCT1) (chain 1 TTAGACTTATCTTTCCCTGCCTTGG; chain 2 UUAGACUUAUCUUUCCCUGCCUUGG; chemistry not given here; one strand in two spellings)
tumor growth rate compared to control groups (A549 xenograft tumor; A549 cells transfected with siRNA before s.c. inoculation): reduced | tumor volume (A549 xenograft tumor; twenty-six days after cell inoculation, preliminary data): 110.1±28.1 mm^3

SEQ ID NO: 4932: siRNA targeting SLC29A1 (ENT1) (chain 1 TGATAAAGTAGCCGAAGGCACTTTC; chain 2 UGAUAAAGUAGCCGAAGGCACUUUC; chemistry not given here; one strand in two spellings)
tumor growth inhibition compared to the control groups (A549 xenograft tumor; cells transfected pre-implantation, monitored 33 or 26 days): No tumor growth inhibition

SEQ ID NO: 4982: siRNA targeting YBX1 (chain 1 TTTGCTGGTAATTGCGTGGAGGACC; chain 2 UUUGCUGGUAAUUGCGUGGAGGACC; chemistry not given here; one strand in two spellings)
YBX1 (p47) and p37 protein levels (YBX1 (p47) and p37): reduction in YBX1 (p47) and p37 protein levels

SEQ ID NO: 4983: siRNA targeting YBX1 (chain 1 TACTGTGGTCGACGCCCATAGGGTC; chain 2 UACUGUGGUCGACGCCCAUAGGGUC; chemistry not given here; one strand in two spellings)
YBX1 (p47) and p37 protein levels (YBX1 (p47) and p37): reduction in YBX1 (p47) and p37 protein levels

SEQ ID NO: 5307: Stealth siRNA targeting RRM2 (chain 1 AATTCATCCCAATGAGCTTCACAGG; chain 2 AAUUCAUCCCAAUGAGCUUCACAGG; Stealth siRNA, chemical pattern not given here; one strand in two spellings)
average tumor size (A549 xenograft tumor; thirty-three days after the cell inoculation, preliminary data): 100.1±116.6 mm^3
